System: adults with blunt TBI, Glasgow Coma Scale score 4-12
Assay: Phase II randomized placebo-controlled trial in acute TBI: signals of activity, 30-day outcomes (Example 3)
Format: in vivo, human
Details: for All cause mortality (ITT): intention to treat, n=77
Excerpt: In addition to monitoring subjects for signs of harm, we hoped to detect signals of activity. […] For this preliminary study, our primary outcome of interest was Glasgow Outcome Scale Extended (GOSE) 30 days post-injury. […] Thirty days following each injury event, we assessed each patient's Glasgow Outcome Score Extended (GOSE) and Disability Rating Scale (DRS). Patients who were severely impaired were classified as “not testable”-a surrogate marker for a poor outcome. Reliability codes were used to record reasons for non-administration of a particular measure, such as physical impairment (e.g., hemiparesis) cognitive impairment (e.g., could not understand instructions), or intoxication. One-year outcomes will be reported at a later date. […] Our secondary aim was to look for signs of drug activity by assessing several measures of outcome. Our a priori primary measure of outcome was the Glasgow Outcome Scale-Extended ([…] et al. (1998) Journal of Neurotrauma 15(8):587-597). […] (1987) Journal of Neurosurgery 67(6):832-840) and 5) the Disability Rating Scale (DRS) (Hall et al. […] Variables determined to be independently associated with all-cause mortality or CNS related-death, such as iGCS (dichotomized into moderate versus severe), injury severity score and Marshall CT score were incorporated in a stepwise logistic regression analyses. Because GCS often fluctuates during the first few hours after injury, additional stepwise logistic regressions were performed using dichotomized GCS 1 day post-injury.

[1] = 30 days post injury, treatment received
[2] = Index GCS = 9-12, 30 days post injury

Q: Which results are given for `CC(=O)[C@H]1CC[C@H]2[C@@H]3CCC4=CC(=O)CC[C@]4(C)[C@H]3CC[C@]12C` [progesterone, pregn-4-ene-3,20-dione]?
A: Dichotomized Glasgow Outcome Score - Extended: Dead to Upper Severe (30 days post injury): 70.0%; Dichotomized Glasgow Outcome Score - Extended: good or moderate recovery (30 days post injury): 30.0%; Glasgow Outcome Score - Extended: Dead (30 days post injury): 14.2%; Glasgow Outcome Score - Extended: Lower Good (30 days post injury): 4.3%; Glasgow Outcome Score - Extended: Lower Moderate (30 days post injury): 11.4%; Glasgow Outcome Score - Extended: Lower Severe (30 days post injury): 40.0%; Glasgow Outcome Score - Extended: Upper Good (30 days post injury): 4.3%; Glasgow Outcome Score - Extended: Upper Moderate (30 days post injury): 10.0%; Glasgow Outcome Score - Extended: Upper Severe (30 days post injury): 8.6%; Glasgow Outcome Score - Extended: Vegetative State (30 days post injury): 7.1%; All cause mortality (ITT) (30 days post injury): 13%; All cause mortality (ITT) (30 days post injury, listed as Progesterone): 13.0%; All cause mortality (TR) [1]: 11.8%; Neurological deaths [1]: 5.3%; Non-neurological deaths [1]: 6.6%; dichotomized GOSE versus placebo (30 days post-injury): did not significantly differ between groups; Disability Rating Score: Total DRS, mean (Index GCS = 4-8, 30 days post injury): 10.7; Disability Rating Score: Employ, mean [2]: 1.8; Disability Rating Score: Function, mean [2]: 1.5; Disability Rating Score: Total DRS, mean [2]: 5; Duration of Coma, mean (Initial GCS = 4-8): 10.1 days; Duration of Post-Traumatic Amnesia, mean (Initial GCS = 4-8): 18.6 days; Duration of Coma, mean (Initial GCS = 4-8, listed as Progesterone): 10.11 days; Duration of Coma, mean (Initial GCS = 9-12): 4.1 days; Duration of Post-Traumatic Amnesia, mean (Initial GCS = 9-12): 10.7 days; trend of mean intracranial pressure levels (first 4 days post-injury, subjects with monitors in place, not statistically significant): remained stable; Intracranial Pressure, mean (infusion day 0): 16.0 mm Hg; Intracranial Pressure, mean (infusion day 1): 17.1 mm Hg; Intracranial Pressure, mean (infusion day 2): 15.4 mm Hg; Intracranial Pressure, mean (infusion day 3): 16.0 mm Hg; Intracranial Pressure, mean (infusion day 4): 17.7 mm Hg; DRS scores versus placebo (moderately brain-injured patients, 30 days post-injury): significantly better DRS scores; Survived > 30 days (treatment received): 88.2%
